Target: T1, recombinant human Meningioma Expressed Antigen 5 (MGEA5), also referred to as O-GcNAcase (OGA) (Homo sapiens, UniProt O60502)
T1 construct: Full length OGA enzyme was purchased at OnGene (cat #TP322411); purchased OnGene (so in the source)
T1 sequence (O60502 1-916): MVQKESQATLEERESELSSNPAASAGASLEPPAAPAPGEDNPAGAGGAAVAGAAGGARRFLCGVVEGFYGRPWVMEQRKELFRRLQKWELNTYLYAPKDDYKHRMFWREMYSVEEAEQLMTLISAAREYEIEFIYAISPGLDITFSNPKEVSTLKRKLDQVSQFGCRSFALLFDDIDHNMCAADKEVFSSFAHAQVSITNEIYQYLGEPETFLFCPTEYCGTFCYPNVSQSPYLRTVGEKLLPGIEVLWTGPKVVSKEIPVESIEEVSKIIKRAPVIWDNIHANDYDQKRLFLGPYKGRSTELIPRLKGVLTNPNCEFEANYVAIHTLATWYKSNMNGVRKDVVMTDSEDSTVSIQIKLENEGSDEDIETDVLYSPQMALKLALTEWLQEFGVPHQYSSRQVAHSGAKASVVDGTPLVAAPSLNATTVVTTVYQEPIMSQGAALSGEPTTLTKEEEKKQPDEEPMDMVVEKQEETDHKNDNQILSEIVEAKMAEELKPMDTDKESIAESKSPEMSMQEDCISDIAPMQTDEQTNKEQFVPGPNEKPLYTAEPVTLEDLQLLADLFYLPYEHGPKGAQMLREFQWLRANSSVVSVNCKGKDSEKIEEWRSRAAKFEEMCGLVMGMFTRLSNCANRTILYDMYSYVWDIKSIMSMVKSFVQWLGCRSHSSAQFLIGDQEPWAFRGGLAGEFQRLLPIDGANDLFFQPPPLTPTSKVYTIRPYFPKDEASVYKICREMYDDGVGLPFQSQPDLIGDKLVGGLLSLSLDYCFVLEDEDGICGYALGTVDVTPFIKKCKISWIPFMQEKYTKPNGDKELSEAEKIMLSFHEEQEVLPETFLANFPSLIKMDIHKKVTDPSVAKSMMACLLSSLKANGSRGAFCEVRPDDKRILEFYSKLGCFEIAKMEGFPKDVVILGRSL
Experiment: OGA biochemical assay (inhibition of FM-GlcNAc hydrolysis, fluorescence)
Settings: FM-GlcNAc substrate; for Emax: read-out: Enzymatic Emax (%); for IC50: read-out: Enzymatic hOGA, pIC50 (converted)
Excerpt: The assay is based on the inhibition of the hydrolysis of fluorescein mono-β-D-N-Acetyl-Glucosamine (FM-GlcNAc) (Mariappa et al. 2015, Biochem J 470:255) by the recombinant human Meningioma Expressed Antigen 5 (MGEA5), also referred to as O-GcNAcase (OGA). The hydrolysis FM-GlcNAc (Marker Gene technologies, cat #M1485) results in the formation of B-D-N-glucosamineacetate and fluorescein. The fluorescence of the latter can be measured at excitation wavelength 485 nm and emission wavelength 538 nm. An increase in enzyme activity results in an increase in fluorescence signal. Full length OGA enzyme was purchased at OnGene (cat #TP322411). The enzyme was stored in 25 mM Tris.HCl, pH 7.3, 100 mM glycine, 10% glycerol at −20° C. Thiamet G and GlcNAcStatin were tested as reference compounds (Yuzwa et al. 2008 Nature Chemical Biology 4:483; Yuzwa et al. 2012 Nature Chemical Biology 8:393). The assay was performed in 200 mM Citrate/phosphate buffer supplemented with 0.005% Tween-20. 35.6 g Na2HPO4 2H2O (Sigma, #C0759) were dissolved in 1 L water to obtain a 200 mM solution. 19.2 g citric acid (Merck, #1.06580) was dissolved in 1 L water to obtain a 100 mM solution. pH of the sodiumphosphate solution was adjusted with the citric acid solution to 7.2. The buffer to stop the reaction consists of a 500 mM Carbonate buffer, pH 11.0. 734 mg FM-GlcNAc were dissolved in 5.48 mL DMSO to obtain a 250 mM solution and was stored at −20° C. OGA was used at a 2 nM concentration and FM-GlcNAc at a 100 uM final concentration. Dilutions were prepared in assay buffer.
50 nl of a compound dissolved in DMSO was dispensed on Black Proxiplate TM 384 Plus Assay plates (Perkin Elmer, #6008269) and 3 μl fl-OGA enzyme mix added subsequently. Plates were pre-incubated for 60 min at room temperature and then 2 μl FM-GlcNAc substrate mix added. […] Plates were briefly centrifuged for 1 min at 1000 rpm and incubate at room temperature for 6 h. To stop the reaction 5 μl STOP buffer were added and plates centrifuge again 1 min at 1000 rpm. Fluorescence was quantified in the Thermo Scientific Fluoroskan Ascent or the PerkinElmer EnVision with excitation wavelength 485 nm and emission wavelength 538 nm.
For analysis a best-fit curve is fitted by a minimum sum of squares method. From this an IC50 value and Hill coefficient was obtained. High control (no inhibitor) and low control (saturating concentrations of standard inhibitor) were used to define the minimum and maximum values.

Row | SMILES | Enzymatic Emax (%) | Enzymatic hOGA; pIC50 | Emax | IC50 | Enzymatic Emax (%) (listed as 69)
1 | COc1cccc([C@@H](C)N2CCC[C@@H](CNc3cc(C)nc(C(F)(F)F)c3)C2)n1 [Product 94] | 72% | 5.24 | – | – | –
2 | CC(=O)Nc1cc(CN2CCC[C@H](Cc3cc(C)nc(C)c3)C2)n(C)n1 [Product 11] | – | – | 90% | 1.35 µM | –
3 | COc1cccc(C(C)N2CCCC(c3cc(C)nc(C)c3)C2)n1 (stereo not drawn) [Product 73] | – | – | 96% | 0.741 µM | –
4 | COc1cc(C[C@H]2CCCN(C(C)c3nc(OC)ccc3F)C2)cc(C)n1 (stereo partly drawn) [Product 69] | – | – | – | 0.0759 µM | 103%
5 | CC(=O)Nc1ccnc(CN2CCC[C@H](Cc3cc(C)nc(C)c3)C2)c1 [Product 31] | – | – | 63% | 6.46 µM | –
6 | CC(=O)N(C)c1cc(CN2CCC[C@H](Cc3cc(C)nc(C)c3)C2)n[nH]1 [Product 10] | – | – | 90% | 1.32 µM | –
7 | COc1ccc(C)c([C@@H](C)N2CCC[C@H](Cc3cc(C)nc(C)c3)C2)n1 [Product 57] | 6% | <5 | – | – | –
8 | COc1ccc(F)c(C(C)N2CC[C@@H](Cc3cc(C)nc(C)c3)C2)n1 (mixture of isomers) [Product 98] | – | – | 92% | 1.12 µM | –
9 | CC(=O)Nc1[nH]nc([C@@H](C)N2CCC[C@H](Cc3cc(C)nc(C)c3)C2)c1C [Product 12] | 36% | <5 | – | – | –
10 | COc1ncc(C(C)N2CCC[C@H](Cc3cc(C)nc(C)c3)C2)cn1 (mixture of isomers) [Product 65] | – | – | 93% | 0.933 µM | –
11 | COc1ccc(C)c([C@H](C)N2CCC[C@H](Cc3cc(C)nc(C)c3)C2)n1 [Product 58] | 96% | 6.1 | – | – | –
12 | CCOc1cccc(C(C)N2CCCC(Cc3cc(C)nc(C)c3)C2)n1 (single isomer, unassigned) [Product 50] | – | – | 16% | > 10 µM | –
13 | CCOc1ncc(CN2CCC[C@H](Cc3cc(C)nc(C)c3)C2)s1 [Product 26] | – | – | 71% | 4.57 µM | –
14 | CCOc1nc(C(C)N2CCC[C@H](Cc3cc(C)nc(C)c3)C2)cn1C (mixture of isomers) [Product 24] | – | – | 84% | 2 µM | –
15 | CCOc1cc(C(C)N2CCC[C@H](Cc3cc(C)nc(C)c3)C2)n(C)n1 (mixture of isomers) [Product 17] | – | – | 96% | 0.245 µM | –
16 | CC(=O)Nc1cc(C(C)N2CC[C@@H](Cc3cc(C)nc(C)c3)C2)n[nH]1 (stereo partly drawn) [Product 97] | – | – | 94% | 0.575 µM | –
17 | CC(=O)Nc1cc(C(C)N2CCC[C@H](Cc3cc(C)nc(C)c3)C2)cnc1C (mixture of isomers) [Product 33] | – | – | 99% | 0.234 µM | –
18 | CC(=O)Nc1ccnc(C(C)N2CCC[C@H](Cc3cc(C)nc(C)c3)C2)c1 (stereo partly drawn) [Product 32] | – | – | 95% | 0.49 µM | –
19 | CCOc1cccc([C@@H](C)N2CCC[C@H](Cc3cc(C)nc(C)c3)C2)n1 [Product 51] | 102% | 7.01 | – | – | –
20 | Cc1cc(C[C@H]2CCCN(Cc3c[nH]c(C)n3)C2)cc(C)n1 [Product 25] | – | – | 82% | 3.02 µM | –

Results, then the molecule that gave them:

Row | Enzymatic Emax (%) | Enzymatic hOGA; pIC50 | Emax | IC50 | Enzymatic Emax (%) (listed as 69) | SMILES
21 | – | – | 91% | 0.646 µM | – | COc1cc(C(C)N2CC[C@@H](Cc3cc(C)nc(C)c3)C2)c(F)cn1 (mixture of isomers) [Product 99]
22 | – | – | 38% | > 10 µM | – | COc1cncc(C[C@H]2CCN(C(C)c3cccc(OC)n3)C2)c1 (mixture of isomers) [Product 143]
23 | – | – | 59% | 7.76 µM | – | COCc1cc(C(C)N2CC[C@@H](Cc3cc(C)nc(OC)c3)C2)nn1C (mixture of isomers) [Product 132]
24 | – | – | 33.1% | > 10 µM | – | COc1cccc(C(C)N2CC[C@H](Cc3ccncc3F)C2)n1 (mixture of isomers) [Product 146]
25 | – | – | 52% | > 10 µM | – | CCOc1cc(CN2CCC[C@H](Cc3cc(C)nc(C)c3)C2)n(C)n1 [Product 161]
26 | – | – | 11.3% | > 10 µM | – | COc1cccc(C(C)N2CC[C@H](Cc3ncccc3F)C2)n1 (mixture of isomers) [Product 148]
27 | – | – | 43.4% | > 10 µM | – | COc1cccc(C(C)N2CC[C@H](Cc3cncc(F)c3)C2)n1 (mixture of isomers) [Product 144]
28 | – | – | 75% | 4.37 µM | – | COc1cc(C[C@H]2CCN(C(C)c3cccc(OC)n3)C2)cc(C)n1 (mixture of isomers) [Product 129]
29 | – | – | 81% | 2.45 µM | – | CC(=O)Nc1cc(C(C)N2CCCC(Oc3cc(C)nc(C(F)(F)F)c3)C2)n[nH]1 (stereo not drawn) [Product 138]
30 | – | – | 92% | 1.23 µM | – | CC(=O)Nc1cc(CN2CCCC(COc3cc(C)nc(C)c3)C2)n[nH]1 (stereo not drawn) [Product 119]
31 | – | – | 46% | > 10 µM | – | COc1ccc(C[C@H]2CCN(C(C)c3cccc(OC)n3)C2)nc1 (mixture of isomers) [Product 150]
32 | – | – | 44.3% | > 10 µM | – | COc1cccc(C(C)N2CC[C@H](Cc3cccnc3C(F)(F)F)C2)n1 (mixture of isomers) [Product 145]
33 | – | – | 29% | > 10 µM | – | CNC(=O)c1nc(C(C)N2CC[C@@H](Cc3cc(C)nc(C)c3)C2)c[nH]1 (mixture of isomers) [Product 163]
34 | – | – | 98% | 0.759 µM | – | CCOc1cnc(C(C)N2CC[C@@H](Cc3cc(C)nc(OC)c3)C2)o1 (mixture of isomers) [Product 133]
35 | 82% | – | – | 2.82 µM | – | CC(=O)Nc1cc(C(C)N2CC[C@@H](Cc3cc(C)nc(C)c3)C2)n[nH]1 (stereo partly drawn) [Product 104]
36 | – | – | 57% | 8.32 µM | – | CC(=O)Nc1cc(C(C)N2CC[C@H](Oc3cc(C)nc(C)c3)C2)n[nH]1 (mixture of isomers) [Product 116]
37 | – | – | 92% | 0.813 µM | – | CC(=O)Nc1cc(C(C)N2CC[C@H](Cc3ncc(C)nc3C)C2)n[nH]1 (stereo partly drawn) [Product 110]
38 | – | – | 56% | 9.55 µM | – | COc1cccc(C(C)N2CC[C@H](Cc3ccnc(OC(C)C)c3)C2)n1 (mixture of isomers) [Product 126]
39 | – | – | 11.8% | > 10 µM | – | COc1cccc(C(C)N2CC[C@H](Cc3ncccc3OC)C2)n1 (mixture of isomers) [Product 151]
40 | – | – | 60% | 7.24 µM | – | COc1cccc(C(C)N2CC[C@H](Cc3ccnc(C(F)(F)F)c3)C2)n1 (mixture of isomers) [Product 127]
41 | – | – | 75% | 4.17 µM | – | CCOc1cc(C(C)N2CC[C@H](Cc3cc(C)nc(C(F)(F)F)c3)C2)n[nH]1 (mixture of isomers) [Product 120]
42 | – | – | 51% | 8.71 µM | – | COc1cc(C[C@H]2CCN(C(C)c3cccc(OC)n3)C2)ccn1 (mixture of isomers) [Product 124]

Reference: patent US20210300900A1, “OGA INHIBITOR COMPOUNDS” (Janssen Pharmaceutica NV, priority 2018, published 2021)
